Where two headings read alike, the source gives them in different places.
Columns and labels:
[1] = in vitro; details: African green monkey
[2] = tested on: SARS-CoV-2; experiment: microbe, parasite or virus in culture; type: cell-based
[3] = tested on: severe acute RS-CoV 3CL^pr°; details: inhibition of severe acute RS-CoV 3CL^pr° activity; cited from earlier work

Row | Compound | CC50 [1] [µM] | IC50 [2] [µM] | IC50 ([2]; Severe acute respiratory syndrome coronavirus 2) [µM] | IC50 [3] [µM]
1 | COc1ccc(-c2coc3cc(O)ccc3c2=O)cc1 [Compound 3, formononetin] | 1720 |  |  | 
2 | COc1c(O)cc2oc(-c3ccc(O)cc3)c(OC)c(=O)c2c1O [Compound 7, 5,7,4’-trihydroxy-3,6-dimethoxy flavone] | 1070 | 664 | 664 | 
3 | CC[C@H](CC[C@@H](C)[C@H]1CC[C@H]2[C@@H]3CC=C4C[C@@H](O[C@@H]5O[C@H](CO)[C@@H](O)[C@H](O)[C@H]5O)CC[C@]4(C)[C@H]3CC[C@]12C)C(C)C [Compound 9, daucosterol] | 2550 |  |  | 
4 | O=c1cc(-c2ccc(O)cc2)oc2cc(O)cc(O)c12 [apigenin] |  |  |  | 281
5 | O=c1cc(-c2ccc(O)c(O)c2)oc2cc(O)cc(O)c12 [luteolin] |  |  |  | 20.2

From publication PMC9696309 (Metabolites, 2022)
